Patent publication US6455593B1, “Method of dynamic retardation of cell cycle kinetics to potentiate cell damage” (priority 1995, dated 2002)
Each block holds one compound with its values, some of them ahead of it.

Assays:
[1] = system: human malignant lymphoma cells (U937); assay: Tumorigenic assay in athymic nude mice; format: in vivo; conditions: U937 cells treated with dThd 0.2 mM for 4 hr followed by STSP 25 nM for 7 hr before subcutaneous inoculation; 14 days
Excerpt: The biologic behavior of xenografts of human malignant cells in immunosuppressed mice can approximate natural growth conditions in a patient, since the cells receive a local supply of plasma nutrients and can survive for several weeks. Thus, inoculated cells may survive in a latent state prior to growth, a condition not readily duplicated in vitro. Inoculum size is critical for observation of tumor growth within a practical time frame. […] After treatment, cells were sedimented and resuspended in serum-free RPMI 1640. In each group four athymic Nu/Nu weanling mice of mean weight 17 gm were inoculated subcutaneously into both subscapular regions with 0.1 ml of RPMI 1640 containing 10^7 cells (viability>90%). Formation of tumors in these subcutaneous sites was observed during the next 14 days. One control mouse died prematurely. At 14 days, all animals were sacrificed, tumors were photographed, tumors were carefully dissected, and tumor weights were recorded. Tumors were verified histologically.

U937 cells = assay: MIS LDH release assay (CytoTox96); format: cell-based, human; conditions: STSP for 14 H, total 18 H, STSP nM: 100,50,25,13,6,3, r16 dThd alone
Experimental: The MIS set up was identical to that described in Example 8. The relative activity of LDH released into supernatant from each microculture well was detected by a coupled enzymatic assay, Decker et al., J. Immunol. Methods 15:61 (1988), in which the chromogen 2-(p-iodophenyl)-3-(p-nitrophenyl)-5-phenyl tetrazolium chloride (INT) is converted to a red INT-formazan product by NADH in the presence of diaphorase.
In this procedure, after incubation and at the time for assay, 50 μl of fresh medium was added to each microculture well prior to assay and microcultures in the entire 96 well plate were simultaneously sedimented at 400×G for 10 min in a Becton Dickinson refrigerated table top centrifuge using a plate carrier. A 50 μl sample from each microwell then was removed carefully and transferred to a corresponding well in a clean 96 well plate. LDH activity was quantitated by means of the CytoTox96 assay, Promega Corp., Madison, Wis. 53711, according to the manufacturers instructions. In tests to determine the total LDH in each microwell, 10 μl of lysing reagent (from the CytoTox96 assay kit) was added to the fixed 100 μl volume with cells and medium prior to the above step. […].
These formulas use […] in which positive numbers are obtained as compared to % inhibition used above. […] Particularly for the latter purpose, all of the cells in each microculture well were totally lysed with Promega lysing reagent prior to the calorimetric measurement.

[2] = system: p34^cdc2, c-myc, JNK, Erk-2; assay: Immunoblot and kinase activity assays (CDC2, c-myc, MAP kinases); format: cell-based, human; conditions: U937, STSP ±dThd or dThd alone
Excerpt: The cyclin-dependent kinase p34^cdc2 was detected with antibody clone #1 from Signal Transduction Laboratories. For detection of histone phosphorylation activity p34^cdc2 was immunoprecipitated with monoclonal antibody (Santa Cruz, #17) using protein A sepharose and reacted with H1 substrate (Boehringer Mannheim) in the presence of γ^32P-ATP Aersham). […] MAP kinases were detected by immnunoblotting with monoclonal antibodies from Pharmingen (San Diego, Calif.). For assay of enzymatic activities, MAP kinases were immunoprecipitated as above with polyclonal antibody to erk2 or with a GST-JNK substrate for JNK. The substrate for erk2 was myelin basic protein substrate and for JNK was GST-JNK (Pharmingen). The protooncogene product c-myc was detected by immunoblotting with an antibody from Oncogene Sciences.

[3] = system: Burkitt's lymphoma cell line Raji; assay: MIS MTT growth inhibition assay; format: cell-based, human; conditions: Raji cells (Tk deficient)

Structure (SMILES): CN[C@@H]1C[C@H]2O[C@@](C)([C@@H]1OC)n1c3ccccc3c3c4c(c5c6ccccc6n2c5c31)C(=O)NC4 [STSP, staurosporine]
- Tumor formation [1]: developed no tumors

- Phosphorylation of CDC2 [2]: not by dThd alone
Structure (SMILES): Cc1cn([C@H]2C[C@H](O)[C@@H](CO)O2)c(=O)[nH]c1=O [dThd, deoxythymidine]
- LDH release multiple, dThd 0.02 mM (U937 cells; dThd 0.02 mM for 4 H): 1.20
- LDH release multiple, dThd 0.06 mM (U937 cells; dThd 0.06 mM for 4 H): 1.14
- LDH release multiple, dThd 0.09 mM (U937 cells; dThd 0.09 mM for 4 H): 1.19
- LDH release multiple, dThd 3.0 mM (U937 cells; dThd 3.0 mM for 4 H): 3.61
- IC40, growth inhibition [3]: > 4 mM
